Test results reported in patent publication US20260345649A1, “PHARMACEUTICAL COMPOSITION FOR DESTRUCTION OF TUMOR BLOOD VESSELS” (SAMSUNG MEDICAL FOUNDATION, priority 2022, published 2026).

Experiments:
HUVECs = test: MTS cell proliferation assay, 5-FU cytotoxicity in HUVECs at different pH; format: cell-based, human; conditions: FIG. 5
Experimental: To evaluate the cytotoxic effect of 5-fluorouracil (5-FU) in human umbilical vein endothelial cells (HUVECs) under different pH conditions, an MTS cell proliferation assay was performed.
Subsequently, the cells were cultured for an additional 24 hours in Dulbecco's Modified Eagle's Medium (DMEM) containing 5-FU at different pH conditions (pH 6.4, 7.4, 8.4, and 9.0). Following the incubation, the cells were washed twice with phosphate-buffered saline (PBS), after which 100 μL of fresh DMEM growth medium was added, followed by an additional 48-hour incubation. […] After an additional 2-hour incubation, the absorbance was measured at 490 nm using a microplate reader (Model 680, BIO-RAD; Spark, TECAN, CA, USA).

VEGF = VEGF immunohistochemical staining of gastric tumor tissue after local injection of 5-FU in nude mice; format: in vivo
Experimental: To observe changes in vascular tissue within gastric tumor masses after local injection of 5-FU, immunohistochemical staining for CD31 and VEGF was performed.
For the control group, gastric tumor tissue was implanted in the dorsal region of nude mice, and when the tumor reached a size of 1 cm×1 cm, it was excised and used. For the 5-FU injection group, 5 mg of 5-FU was injected at the base of the tumor when the implanted tumor reached a size of 1 cm×1 cm. […] The immunohistochemical staining method was as follows.
To reduce endogenous peroxidase activity present in blood cells within the tissue, the slides were treated at room temperature with 3% H2O2 in methanol for 15 minutes. […] The slides were washed twice with TBST (Tris-buffered saline with 0.1% Tween® 20 Detergent) for 3 minutes each, followed by incubation at room temperature for 15 minutes with Detection Kit Reagent 1 (HRP Polymer-anti-mouse/rabbit IgG). […] For counterstaining, Harris hematoxylin was applied.
For result analysis, the proportion of the area stained for CD31-positive blood vessels and VEGF-positive cancer cells relative to the total tissue area was calculated, and a comparison was made between the control group and the 5-FU locally injected group.

[1] = system: subcutaneous muscle layer; test: Pathological changes in the subcutaneous muscle layer after subcutaneous injection of 5-FU (H&E staining); format: in vivo, nude mice; design: key to pathological change score (degeneration, necrosis, inflammation, fibrosis): 0: absent; 1: mild; 2: moderate; 3: severe; conditions: 5 mg pH 8.4 5-FU, after 24 hours
Experimental: To observe pathological changes in the surrounding tissue after injecting 5 mg of pH 8.4 5-FU near the tumor, the drug was locally administered to nude mice. After 24 hours, tissues, including muscle layers, were collected and subjected to H&E staining to examine degeneration, necrosis, inflammation, and fibrosis in the muscle layer. The extent of each pathological change was scored as follows: 0=absent, 1=mild, 2=moderate, 3=severe, and the results are shown in FIG. 10A and FIG. 10b. FIG. 10A presents observations at 40× magnification, while FIG. 10b presents observations at 100× magnification.

Q: How did the “cytotoxicity under alkaline conditions compared to neutral or acidic 5-FU” value (HUVECs) turn out when O=c1[nH]cc(F)c(=O)[nH]1 [5-FU, 5-fluorouracil] was run?
A: Its value is “significantly greater toxicity”.

Q: And the “cytotoxic effect according to pH” value (HUVECs; pH 6.4, 7.4, 8.4, and 9.0, 24 hours)?
A: Its value is “increased as the alkalinity of the drug became stronger”.

Q: And the “Immuno-positive area (%)” value (VEGF; VEGF, proportion of total tissue area, 5 mg 5-FU, one week after injection, control group 0.38)?
A: The value was 0.10%.

Q: And the VEGF secretion levels (VEGF; compared to control group)?
A: Its VEGF secretion levels is “decreased”.

Q: And the VEGF stained area (VEGF; compared to control group, FIG. 7)?
A: The VEGF stained area was “appeared smaller”.

Q: What about the “pathological change score (degeneration, necrosis, inflammation, fibrosis)” value [1] of the same compound?
A: Its value is 0.

Q: And the “pathological changes in the subcutaneous muscle layer at the injection site” value [1]?
A: Its value is “no pathological changes were observed”.
